Several values for one entry are separate records, joined by “and”; a condition that tells them apart may be missing. Identical values can stand only once.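 These data come from cells grown in 96-well plates and exposed to compound for 48 hours at five concentrations. Here, GI50 denotes the concentration required for 50% inhibition of growth. Definition used: TGI = concentration required for complete inhibition of growth.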
How the values were obtained:
Experiment in all cases: NCI-60 cell line screen, 48 h
OVCAR-4 ovarian = tested on: OVCAR-4 ovarian
SF-295 CNS = tested on: SF-295 CNS
SK-OV-3 ovarian = tested on: SK-OV-3 ovarian
HCC-2998 colon = tested on: HCC-2998 colon
OVCAR-8 ovarian = tested on: OVCAR-8 ovarian
EKVX NSCLC = tested on: EKVX NSCLC
MDA-MB-435 = tested on: MDA-MB-435
NCI-H226 lung = tested on: NCI-H226 lung
SNB-75 CNS = tested on: SNB-75 CNS
HT29 colon = tested on: HT29 colon

SMILES	GI50 (OVCAR-4 ovarian)	TGI (OVCAR-4 ovarian) [µM]	GI50 (SF-295 CNS)	TGI (SF-295 CNS) [µM]	GI50 (SK-OV-3 ovarian) [µM]	TGI (SK-OV-3 ovarian) [µM]	GI50 (HCC-2998 colon)	TGI (HCC-2998 colon) [µM]	GI50 (OVCAR-8 ovarian)	TGI (OVCAR-8 ovarian) [µM]	GI50 (EKVX NSCLC)	TGI (EKVX NSCLC) [µM]	GI50 (MDA-MB-435)	TGI (MDA-MB-435) [µM]	GI50 (NCI-H226 lung)	TGI (NCI-H226 lung) [µM]	GI50 (SNB-75 CNS) [µM]	TGI (SNB-75 CNS) [µM]	GI50 (HT29 colon)	TGI (HT29 colon) [µM]
COc1ccc(-n2c(=O)c3ccccc3n(Cc3ccc(C(=O)NO)cc3)c2=O)cc1	2.86 µM	20	1.81 µM	3.54	2.45	6.69	1.81 µM	3.58	1.8 µM	5.88	1.92 µM	4.31	1.74 µM	3.56	1.56 µM	3.75	1.72	5.71	2.97 µM	22.6
CC(=O)O[C@H]([C@H](OC(C)=O)[C@H](C)OC(C)=O)[C@@H](/C=C/[C@H]1CC=CC(=O)O1)OC(C)=O	34.7 µM	> 100	20.6 µM	59.8	> 100	> 100	24.1 µM	68.9	51.2 µM	> 100	> 100 µM	> 100	41.2 µM	> 100	> 100 µM	> 100	22.2	61.7	55.8 µM	> 100
Cn1cc(-c2ccc3c(c2)ncn3-c2cc(NS(=O)(=O)C3CC3)cc(-c3ccc(F)cc3F)c2)cn1	3.45 µM	> 100	8.18 µM	37.2	10.2	> 100	22.7 µM	80.1	15.4 µM	> 100	21.3 µM	> 100	21.9 µM	> 100	27 µM	94.4	0.59	8.28	10.3 µM	38.3
COc1cc(/C=C/C(=O)c2nc3cc(F)ccc3nc2C)cc(OC)c1OC	> 40.7 µM	> 100	> 25.2 µM	> 100	> 100	> 100	> 100 µM	> 100	5.38 µM	> 100	> 78.7 µM	> 100	3.55 µM	> 100	> 100 µM	> 100	9.3	> 100	3.75 µM	> 100
CN(c1ccccc1)c1c2ccccc2nc2[nH]c3ccccc3c12	4.42 µM	> 48.7	2.44 µM	5.76	3.75	14.1	3.05 µM	12.1	2.46 µM	> 29.3	5.04 µM	21	3.26 µM	9.25	1.91 µM	4.44	3.04	15.1	3.83 µM	> 100
Cc1ccc(-c2nc([P+](c3ccccc3)(c3ccccc3)c3ccccc3)c(N3CCOCC3)o2)cc1	0.281 µM	3.03	1.12 µM	4.35	0.381	4.32	0.517 µM	6.87	0.505 µM	9.5	1.08 µM	9.99	0.351 µM	1.81	0.724 µM	8.03	0.194	1.11	0.357 µM	11
COc1cc2c(cc1C)NC(=O)/C2=C\c1ccc(Oc2ccccc2)cc1	16.4 µM	29.9	17 µM	36.8	17	31.4	16.3 µM	29.9	22.8 µM	64.6	12.9 µM	27	17.8 µM	38.1	16.7 µM	32.6	21	37.4	12.2 µM	25.6
COc1ccc(-c2c(Nc3ccccn3)nc3c(C4=CCCCC4)c(-c4ccccc4)[nH]n3c2=O)cc1	2.31 µM	> 100	2.48 µM	14	3.44	17.5	3.7 µM	> 100	3.47 µM	> 100	2.97 µM	36.9	2.71 µM	> 100	2.78 µM	17.8	2.99	21.6	2.62 µM	> 100
CC(=O)O[C@H]1C[C@@H]2[C@@]3(C)CC[C@H]4C[C@@]4(C)[C@@H]3CC[C@@]2(C)C2=CCC3=C(COC3=O)[C@]21C	25 µM	60.2	19.6 µM	40.9	32.6	> 100	23.7 µM	51.4	19.9 µM	65	17.6 µM	35	22.6 µM	46.9	16 µM	32.6	23.1	51.2	31.6 µM	> 100
CNS(=O)(=O)Nc1nccc(Cc2c(C)c3ccc(Oc4ncccn4)cc3oc2=O)c1F	4.33 µM and > 5.62 µM	> 100	27.8 µM and > 10 µM	> 100	–	> 100	0.0209 µM and 0.00869 µM	> 10	33.8 µM and > 10 µM	> 100	0.438 µM and 0.351 µM	> 100	0.0526 µM and 0.0395 µM	> 100	6.82 µM and > 10 µM	> 100	> 58.9	> 100	0.0278 µM and 0.0231 µM	> 100
Nc1cc(C(F)(F)F)c(-c2nc(N3CCOCC3)nc(N3CCOCC3)n2)cn1	0.667 µM	> 31.1	0.226 µM	1.75	0.131	0.598	0.633 µM	> 88	0.89 µM	> 66.1	0.31 µM	5.02	0.398 µM	5.15	0.384 µM	12.2	0.118	2.19	0.214 µM	36

— PubChem BioAssay (NCI)
